Reference: ChEMBL document CHEMBL4507263, “Data for DCP probe BAY-474” (2021)

Columns and labels:
[1] = target: Casein kinase II subunit alpha (Homo sapiens) (UniProt P68400); assay: CK2 (h) Millipore kinase activity assay; settings: Compound concentration 1.0 uM
[2] = target: Protein kinase C delta type (Homo sapiens) (UniProt Q05655); assay: PKCdelta (h) Millipore kinase activity assay; settings: Compound concentration 1.0 uM
[3] = target: voltage-gated sodium channel, site 2 (Rattus norvegicus, UniProt F1LQQ7+O08562+O88420+O88457+P04774+P04775+P08104+P15389+P15390+Q62968); assay: Inhibition of Sodium Channel, Site 2 at 10 µM in the Eurofins-Panlabs radioligand binding assay (Eurofins_assay_279510); type: protein assay; parameters: ligand concentration 5 nM, non-specific ligand with concentration 100 µM Veratridine, incubation time 60 min, incubation temperature 37 °C; settings: male, Wistar, rat whole brain (except cerebellum) membranes, probe [3H] Batrachotoxinin, compound concentration 10 uM
[4] = target: Protein kinase C epsilon type (Homo sapiens) (UniProt Q02156); assay: PKCepsilon (h) Millipore kinase activity assay; settings: Compound concentration 1.0 uM
Sequence of Protein kinase C epsilon type (Homo sapiens) (Q02156 whole entry): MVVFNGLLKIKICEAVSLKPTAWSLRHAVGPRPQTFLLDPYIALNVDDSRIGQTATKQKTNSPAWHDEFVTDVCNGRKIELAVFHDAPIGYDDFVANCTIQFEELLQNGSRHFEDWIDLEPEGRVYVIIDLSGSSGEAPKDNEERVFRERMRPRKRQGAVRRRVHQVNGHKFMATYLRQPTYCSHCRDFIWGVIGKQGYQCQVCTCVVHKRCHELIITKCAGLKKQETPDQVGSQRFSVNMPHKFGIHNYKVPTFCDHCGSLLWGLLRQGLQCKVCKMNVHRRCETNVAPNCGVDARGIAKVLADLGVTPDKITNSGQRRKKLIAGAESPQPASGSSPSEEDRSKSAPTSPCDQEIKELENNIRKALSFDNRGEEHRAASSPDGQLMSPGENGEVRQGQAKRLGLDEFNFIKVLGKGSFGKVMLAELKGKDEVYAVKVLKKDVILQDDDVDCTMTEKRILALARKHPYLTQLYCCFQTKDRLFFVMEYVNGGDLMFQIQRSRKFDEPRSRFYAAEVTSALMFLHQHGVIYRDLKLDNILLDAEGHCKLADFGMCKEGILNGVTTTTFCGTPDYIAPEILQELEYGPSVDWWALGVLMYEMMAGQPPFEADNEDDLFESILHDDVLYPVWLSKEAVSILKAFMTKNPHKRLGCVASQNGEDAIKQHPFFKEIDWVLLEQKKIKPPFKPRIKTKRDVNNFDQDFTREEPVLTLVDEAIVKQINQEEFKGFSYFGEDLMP

[5] = target: Mitogen-activated protein kinase 14 (Homo sapiens) (UniProt Q16539); assay: SAPK2a (h) Millipore kinase activity assay; settings: Compound concentration 1.0 uM
[6] = target: Receptor-interacting serine/threonine-protein kinase 2 (Homo sapiens) (UniProt O43353); assay: RIPK2 (h) Millipore kinase activity assay; settings: Compound concentration 1.0 uM
[7] = target: Acetylcholine receptor subunit alpha (Homo sapiens) (UniProt P02708); assay: Inhibition of Nicotinic Acetylcholine D1, Bungarotoxin at 10 µM in the Eurofins-Panlabs radioligand binding assay (Eurofins_assay_258700); settings: Compound concentration 10.0 uM
[8] = target: Adenosine receptor A3 (Homo sapiens) (UniProt P0DMS8); settings: Compound concentration 10.0 uM
Sequence of Adenosine receptor A3 (Homo sapiens) (P0DMS8 whole entry): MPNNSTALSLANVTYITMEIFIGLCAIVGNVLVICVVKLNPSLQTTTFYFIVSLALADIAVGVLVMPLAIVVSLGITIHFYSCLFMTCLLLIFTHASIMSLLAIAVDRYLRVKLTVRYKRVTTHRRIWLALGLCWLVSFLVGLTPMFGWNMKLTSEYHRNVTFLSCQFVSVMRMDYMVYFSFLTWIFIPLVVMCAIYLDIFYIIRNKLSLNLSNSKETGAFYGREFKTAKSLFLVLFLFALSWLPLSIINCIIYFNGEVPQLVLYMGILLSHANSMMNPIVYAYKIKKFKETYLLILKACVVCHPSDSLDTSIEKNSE

[9] = target: Serine/threonine-protein kinase Sgk3 (Homo sapiens) (UniProt Q96BR1); assay: SGK3 (h) Millipore kinase activity assay; settings: Compound concentration 1.0 uM
[10] = target: D(3) dopamine receptor (Homo sapiens) (UniProt P35462); settings: Compound concentration 10.0 uM
[11] = target: Protein kinase C gamma type (Homo sapiens) (UniProt P05129); assay: PKCgamma(h) Millipore kinase activity assay; settings: Compound concentration 1.0 uM
[12] = target: Neuropeptide Y receptor type 2 (Homo sapiens) (UniProt P49146); assay: Inhibition of Neuropeptide Y Y2 at 10 µM in the Eurofins-Panlabs radioligand binding assay (Eurofins_assay_257110); settings: Compound concentration 10.0 uM
[13] = target: Serine/threonine-protein kinase 10 (Homo sapiens) (UniProt O94804); assay: LOK (h) Millipore kinase activity assay; settings: Compound concentration 1.0 uM
[14] = target: Muscle, skeletal receptor tyrosine-protein kinase (Homo sapiens) (UniProt O15146); assay: MuSK (h) Millipore kinase activity assay; settings: Compound concentration 1.0 uM
[15] = target: Serine/threonine-protein kinase PLK2 (Homo sapiens) (UniProt Q9NYY3); assay: Snk (h) Millipore kinase activity assay; settings: Compound concentration 1.0 uM
[16] = target: Serine/threonine-protein kinase N2 (Homo sapiens) (UniProt Q16513); assay: PRK2 (h) Millipore kinase activity assay; settings: Compound concentration 1.0 uM
[17] = target: Beta-2 adrenergic receptor (Homo sapiens) (UniProt P07550); settings: Compound concentration 10.0 uM
[18] = target: Casein kinase I isoform gamma-3 (Homo sapiens) (UniProt Q9Y6M4); assay: CK1gamma3 (h) Millipore kinase activity assay; settings: Compound concentration 1.0 uM
Sequence of Casein kinase I isoform gamma-3 (Homo sapiens) (Q9Y6M4 whole entry, looked up, canonical isoform): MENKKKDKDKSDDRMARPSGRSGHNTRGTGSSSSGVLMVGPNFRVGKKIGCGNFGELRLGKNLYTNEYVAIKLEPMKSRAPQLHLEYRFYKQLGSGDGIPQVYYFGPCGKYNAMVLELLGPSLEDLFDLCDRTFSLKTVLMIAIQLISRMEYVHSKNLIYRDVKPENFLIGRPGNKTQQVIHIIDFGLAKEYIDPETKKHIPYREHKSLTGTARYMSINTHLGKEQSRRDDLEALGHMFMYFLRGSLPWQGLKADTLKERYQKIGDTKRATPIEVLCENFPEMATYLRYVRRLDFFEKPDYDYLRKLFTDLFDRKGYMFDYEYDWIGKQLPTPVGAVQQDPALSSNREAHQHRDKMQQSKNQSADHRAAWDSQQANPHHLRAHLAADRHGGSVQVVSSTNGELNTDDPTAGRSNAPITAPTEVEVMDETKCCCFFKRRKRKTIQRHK

[19] = target: Serine/threonine-protein kinase RIO3 (Homo sapiens) (UniProt O14730); settings: Compound concentration 1000.0 nM
[20] = target: Serine/threonine-protein kinase 4 (Homo sapiens) (UniProt Q13043); settings: Compound concentration 1000.0 nM
Sequence of Serine/threonine-protein kinase 4 (Homo sapiens) (Q13043 whole entry): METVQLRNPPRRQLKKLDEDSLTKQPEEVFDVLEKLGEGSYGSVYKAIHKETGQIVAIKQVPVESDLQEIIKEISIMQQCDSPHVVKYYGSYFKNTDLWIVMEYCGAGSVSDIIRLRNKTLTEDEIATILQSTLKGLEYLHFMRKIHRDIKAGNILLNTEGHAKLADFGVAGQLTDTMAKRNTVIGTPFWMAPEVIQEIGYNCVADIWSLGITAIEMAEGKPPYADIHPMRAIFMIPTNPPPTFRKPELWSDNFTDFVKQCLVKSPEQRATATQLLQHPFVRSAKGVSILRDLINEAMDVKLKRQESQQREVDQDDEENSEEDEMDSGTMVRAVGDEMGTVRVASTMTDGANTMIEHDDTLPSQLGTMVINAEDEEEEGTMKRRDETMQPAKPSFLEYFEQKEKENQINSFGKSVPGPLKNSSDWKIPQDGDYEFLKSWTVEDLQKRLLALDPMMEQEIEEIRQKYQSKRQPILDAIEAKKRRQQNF

[21] = target: Inhibitor of nuclear factor kappa-B kinase subunit epsilon (Homo sapiens) (UniProt Q14164); settings: Compound concentration 1000.0 nM
[22] = target: Phosphatidylinositol 4,5-bisphosphate 3-kinase catalytic subunit delta isoform (Homo sapiens) (UniProt O00329); settings: Compound concentration 1000.0 nM
[23] = target: Serine/threonine-protein kinase RIO2 (Homo sapiens) (UniProt Q9BVS4); settings: Compound concentration 1000.0 nM
[24] = target: Serine/threonine-protein kinase Chk2 (Homo sapiens) (UniProt O96017); settings: Compound concentration 1000.0 nM
[25] = system: Mast/stem cell growth factor receptor Kit (Homo sapiens), P10721 [V559D,V654A]; settings: Compound concentration 1000.0 nM
[26] = target: Activin receptor type-2B (Homo sapiens) (UniProt Q13705); settings: Compound concentration 1000.0 nM
[27] = system: Tyrosine-protein kinase ABL1 (Homo sapiens), P00519 [Q252H]; settings: Compound concentration 1000.0 nM
[28] = target: Calcium/calmodulin-dependent protein kinase type 1G (Homo sapiens) (UniProt Q96NX5); settings: Compound concentration 1000.0 nM
[29] = target: Casein kinase I isoform epsilon (Homo sapiens) (UniProt P49674); settings: Compound concentration 1000.0 nM
[30] = target: Tyrosine-protein kinase receptor UFO (Homo sapiens) (UniProt P30530); settings: Compound concentration 1000.0 nM
[31] = target: MAP kinase-interacting serine/threonine-protein kinase 1 (Homo sapiens) (UniProt Q9BUB5); settings: Compound concentration 1000.0 nM
[32] = target: Calcium/calmodulin-dependent protein kinase type II subunit delta (Homo sapiens) (UniProt Q13557); settings: Compound concentration 1000.0 nM
Sequence of Calcium/calmodulin-dependent protein kinase type II subunit delta (Homo sapiens) (Q13557 whole entry): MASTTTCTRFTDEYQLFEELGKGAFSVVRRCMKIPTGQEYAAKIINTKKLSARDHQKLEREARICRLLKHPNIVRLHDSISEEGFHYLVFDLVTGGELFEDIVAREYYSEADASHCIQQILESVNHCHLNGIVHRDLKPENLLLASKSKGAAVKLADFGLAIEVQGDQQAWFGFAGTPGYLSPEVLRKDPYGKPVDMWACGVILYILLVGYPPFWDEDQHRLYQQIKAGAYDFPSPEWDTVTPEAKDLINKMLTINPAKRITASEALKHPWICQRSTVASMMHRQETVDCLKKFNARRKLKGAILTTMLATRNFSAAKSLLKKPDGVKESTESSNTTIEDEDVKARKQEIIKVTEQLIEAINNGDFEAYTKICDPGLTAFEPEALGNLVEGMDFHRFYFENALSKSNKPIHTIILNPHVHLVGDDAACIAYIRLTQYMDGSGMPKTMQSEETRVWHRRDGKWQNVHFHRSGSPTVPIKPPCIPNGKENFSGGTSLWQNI

[33] = target: Proto-oncogene tyrosine-protein kinase receptor Ret (Homo sapiens) (UniProt P07949); settings: Compound concentration 1000.0 nM
Sequence of Proto-oncogene tyrosine-protein kinase receptor Ret (Homo sapiens) (P07949 whole entry): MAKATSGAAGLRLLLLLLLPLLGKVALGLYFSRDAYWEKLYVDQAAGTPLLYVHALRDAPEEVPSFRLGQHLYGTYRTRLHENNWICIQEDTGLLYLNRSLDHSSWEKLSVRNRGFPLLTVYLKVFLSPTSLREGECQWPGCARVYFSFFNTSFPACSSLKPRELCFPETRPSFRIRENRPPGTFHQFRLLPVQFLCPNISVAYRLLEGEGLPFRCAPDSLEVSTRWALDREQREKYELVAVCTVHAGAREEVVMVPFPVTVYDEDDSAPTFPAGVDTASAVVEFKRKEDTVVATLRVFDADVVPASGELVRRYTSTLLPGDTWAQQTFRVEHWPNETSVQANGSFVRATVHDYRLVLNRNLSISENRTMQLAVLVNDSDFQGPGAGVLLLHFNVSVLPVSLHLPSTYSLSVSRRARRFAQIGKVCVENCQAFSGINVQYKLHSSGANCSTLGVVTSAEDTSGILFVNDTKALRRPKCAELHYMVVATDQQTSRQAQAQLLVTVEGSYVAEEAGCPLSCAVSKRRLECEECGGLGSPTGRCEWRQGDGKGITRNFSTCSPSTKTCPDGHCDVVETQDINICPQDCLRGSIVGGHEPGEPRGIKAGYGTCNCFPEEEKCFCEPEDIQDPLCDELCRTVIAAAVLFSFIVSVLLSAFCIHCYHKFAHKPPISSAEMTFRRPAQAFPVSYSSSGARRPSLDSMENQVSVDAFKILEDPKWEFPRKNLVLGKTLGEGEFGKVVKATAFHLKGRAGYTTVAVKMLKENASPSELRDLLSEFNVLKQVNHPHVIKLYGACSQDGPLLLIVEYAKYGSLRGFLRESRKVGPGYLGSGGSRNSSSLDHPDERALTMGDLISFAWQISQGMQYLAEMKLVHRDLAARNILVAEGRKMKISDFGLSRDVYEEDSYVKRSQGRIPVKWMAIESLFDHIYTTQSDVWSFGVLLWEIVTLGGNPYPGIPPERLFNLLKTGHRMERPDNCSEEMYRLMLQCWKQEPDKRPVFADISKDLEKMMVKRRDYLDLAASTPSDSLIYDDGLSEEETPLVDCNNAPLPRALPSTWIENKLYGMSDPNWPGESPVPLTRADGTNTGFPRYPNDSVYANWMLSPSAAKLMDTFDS

[34] = target: TGF-beta receptor type-2 (Homo sapiens) (UniProt P37173); settings: Compound concentration 1000.0 nM
[35] = target: Cyclin-dependent kinase-like 1 (Homo sapiens) (UniProt Q00532); settings: Compound concentration 1000.0 nM
Sequence of Cyclin-dependent kinase-like 1 (Homo sapiens) (Q00532 whole entry): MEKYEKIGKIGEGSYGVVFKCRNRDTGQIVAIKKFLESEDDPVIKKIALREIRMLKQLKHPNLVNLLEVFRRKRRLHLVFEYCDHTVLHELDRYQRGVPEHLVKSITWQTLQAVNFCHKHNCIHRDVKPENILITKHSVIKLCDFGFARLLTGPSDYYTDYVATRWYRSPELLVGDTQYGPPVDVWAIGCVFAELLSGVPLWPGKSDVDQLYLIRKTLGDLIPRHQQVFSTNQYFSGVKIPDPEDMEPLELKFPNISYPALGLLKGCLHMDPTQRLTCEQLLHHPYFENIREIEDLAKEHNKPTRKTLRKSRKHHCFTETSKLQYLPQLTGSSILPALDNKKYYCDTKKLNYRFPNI

[36] = target: Tyrosine-protein kinase TXK (Homo sapiens) (UniProt P42681); settings: Compound concentration 1000.0 nM
[37] = target: Serine/threonine-protein kinase LATS2 (Homo sapiens) (UniProt Q9NRM7); settings: Compound concentration 1000.0 nM
Sequence of Serine/threonine-protein kinase LATS2 (Homo sapiens) (Q9NRM7 whole entry): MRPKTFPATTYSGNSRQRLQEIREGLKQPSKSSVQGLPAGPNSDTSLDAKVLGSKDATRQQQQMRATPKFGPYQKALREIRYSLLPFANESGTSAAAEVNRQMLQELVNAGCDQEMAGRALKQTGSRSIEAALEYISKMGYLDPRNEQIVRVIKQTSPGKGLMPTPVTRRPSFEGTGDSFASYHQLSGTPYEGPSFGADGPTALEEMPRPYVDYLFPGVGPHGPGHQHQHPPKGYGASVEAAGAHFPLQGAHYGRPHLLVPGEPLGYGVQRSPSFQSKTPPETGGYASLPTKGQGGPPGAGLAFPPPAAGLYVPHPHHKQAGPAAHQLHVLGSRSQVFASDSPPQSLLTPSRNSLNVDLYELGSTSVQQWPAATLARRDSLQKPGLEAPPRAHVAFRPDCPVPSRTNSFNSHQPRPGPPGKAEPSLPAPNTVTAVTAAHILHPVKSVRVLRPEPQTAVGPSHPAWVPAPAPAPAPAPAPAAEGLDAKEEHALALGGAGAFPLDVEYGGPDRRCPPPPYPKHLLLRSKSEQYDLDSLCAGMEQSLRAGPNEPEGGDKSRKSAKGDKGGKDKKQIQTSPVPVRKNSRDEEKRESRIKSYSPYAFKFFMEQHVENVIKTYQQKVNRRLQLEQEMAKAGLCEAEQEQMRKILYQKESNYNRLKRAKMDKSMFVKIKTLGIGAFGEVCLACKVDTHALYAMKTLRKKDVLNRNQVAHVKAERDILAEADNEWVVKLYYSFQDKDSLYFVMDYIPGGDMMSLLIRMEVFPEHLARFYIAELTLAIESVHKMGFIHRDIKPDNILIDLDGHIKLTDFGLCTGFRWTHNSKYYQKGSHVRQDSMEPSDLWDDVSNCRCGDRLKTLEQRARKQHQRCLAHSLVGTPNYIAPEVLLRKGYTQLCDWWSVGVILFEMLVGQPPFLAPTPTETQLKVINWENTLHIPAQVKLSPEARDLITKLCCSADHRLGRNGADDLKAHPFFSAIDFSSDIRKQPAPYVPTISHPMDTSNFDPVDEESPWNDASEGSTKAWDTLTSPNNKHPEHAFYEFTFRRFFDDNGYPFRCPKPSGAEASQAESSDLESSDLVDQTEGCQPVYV

[38] = target: Serine/threonine-protein kinase SBK1 (Homo sapiens) (UniProt Q52WX2); settings: Compound concentration 1000.0 nM
[39] = target: Serine/threonine-protein kinase PAK 5 (Homo sapiens) (UniProt Q9P286); settings: Compound concentration 1000.0 nM
[40] = target: Tyrosine-protein kinase Fgr (Homo sapiens) (UniProt P09769); settings: Compound concentration 1000.0 nM
[41] = target: Protein kinase C epsilon type (Homo sapiens) (UniProt Q02156); settings: Compound concentration 1000.0 nM
[42] = target: Serine/threonine-protein kinase TBK1 (Homo sapiens) (UniProt Q9UHD2); settings: Compound concentration 1000.0 nM
[43] = system: Receptor-type tyrosine-protein kinase FLT3 (Homo sapiens), P36888 [UNDEFINED MUTATION]; settings: Compound concentration 1000.0 nM

**Q.** What does the source list for CC1=C(C#N)C(c2ccc3[nH]nc(C)c3c2)C(C#N)=C(C)N1 [BAY-474]?
**A.** inhibition [1]: -8%; inhibition [2]: 2%; inhibition at 60 min, 10 µM [3]: -1% (not active); inhibition [4]: 26%; inhibition [5]: 3%; inhibition [6]: 5%; inhibition [7]: 0%; inhibition [8]: 13%; inhibition [9]: -2%; inhibition [10]: 12%; inhibition [11]: 18%; inhibition [12]: 3%; inhibition [13]: 26%; inhibition [14]: 19%; inhibition [15]: 3%; inhibition [16]: 9%; inhibition [17]: 4%; inhibition [18]: 21%

**Q.** What does the source list for CC1=C(C#N)[C@@H](c2ccc3[nH]nc(C)c3c2)C(C#N)=C(c2ccc(Cl)cc2)N1 [BAY-827]?
**A.** residual activity [19]: 100%; residual activity [20]: 100%; residual activity [21]: 100%; residual activity [22]: 100%; residual activity [23]: 100%; residual activity [24]: 100%; residual activity [25]: 100%; residual activity [26]: 100%; residual activity [27]: 43.8%; residual activity [28]: 100%; residual activity [29]: 91.7%; residual activity [30]: 100%; residual activity [31]: 100%; residual activity [32]: 82.1%; residual activity [33]: 100%; residual activity [34]: 74.6%; residual activity [35]: 77.1%; residual activity [36]: 88.1%; residual activity [37]: 100%; residual activity [38]: 100%; residual activity [39]: 100%; residual activity [40]: 100%; residual activity [41]: 100%; residual activity [42]: 58.7%; residual activity [43]: 93.9%
